{
  "source": "paper PMC9863691",
  "about": "“A Novel Ferroptosis Inhibitor UAMC-3203, a Potential Treatment for Corneal Epithelial Wound” (Pharmaceutics, 2022)",
  "origin": "cited, not measured here",
  "key": {"[1]": {"conditions": "human, microsomes; cited from earlier work"}, "ferroptosis": {"tested_on": "ferroptosis", "set-up": "method as in PMID 30354101", "conditions": "read-out: in vitro potency IC50 (ferroptosis); cited from earlier work"}, "[2]": {"tested_on": "human corneal epithelial cell line", "set-up": "method as in PMID 34535730", "conditions": "after exposure to cigarette smoke and heated tobacco products; cited from earlier work"}},
  "data": [
    {"smiles": "CCOC(=O)c1ccc(NC2CCCCC2)c(N)c1", "note": "[Fer-1, Ferrostatin-1, reference compound]", "values": [
      {"measurement": "t1/2 in human microsome", "setting": "[1]", "value": 6, "unit": "min"},
      {"measurement": "IC50", "setting": "ferroptosis", "value": 33, "unit": "nM"},
      {"measurement": "effect on cell death and cell viability", "setting": "[2]", "value": "reduced cell death and improved cell viability"}
    ]}
  ]
}
